Measurements taken from patent publication US11963966B2, “Compositions and methods for treating ovarian tumors” (Dana-Farber Cancer Institute, Inc., priority 2017, dated 2024).

Key:
[1] = system: PDX models DF20, DF68, DF101; experiment: Carboplatin treatment of ovarian cancer PDX models, tumor volume and BLI; assay type: in vivo, mice; settings: followed by subsequent tumor outgrowth
Experimental: FIG. 4A-FIG. 4E are a series of graphs depicting comparisons of expression profiles across patient-derived xenograft (PDX) models before and after recurrence. […] FIG. 4A is a plot of tumor burden of PDX model DF20. PDX model DF20 response to carboplatin was assessed. Triangles indicate vehicle mice, squares indicate relapsed mice, and asterisks indicates MRD animals. MRD and relapsed tumors were treated with three cycles of carboplatin and harvested for single-cell RNA-sequencing at the last indicated time point in this graph. FIG. 4B is a heatmap showing the similarities and clustering of average expression profiles for each of the samples corresponding to three PDX models, with samples collected before treatments (vehicle), MRD and full relapse for each of the models. FIG. 4C is a plot of expression of highly-abundant transcripts in single-cells indicate disproportionally high expression of key nodes of the JAK/STAT pathway, including STAT2 and STAT3, and others.
Next, platinum-resistance was modeled using PDX-models. […] Single-cells were harvested for sequencing from untreated animals (vehicle) and the carboplatin-treated animals were monitored for tumor regression and relapse. […] Accordingly, gene sets were detected which were consistently altered across two or three samples of MRD (FIG. 4D) or relapse (FIG. 4E), and contribute to drug resistance or tumor relapse. […]

[2] = system: established ovarian cancer cell lines (OVCAR4, OVCAR8, OVASHO, TYKNU, Kuramachi); experiment: Spheroid formation in low adherent surface culture; assay type: cell-based; settings: same treatment doses as JSI-124
Experimental: FIG. 6A-FIG. 6G are a series of graphs and images depicting the impact of JAK/STAT-inhibition on spheroid formation, invasion and killing ex vivo and in vitro. FIG. 6A a histogram (FIG. 11B), showing drug screening with 14 compounds (at 1 μM) inhibiting the JAK/STAT pathway in OVACR4. Relative viability compared to DMSO control measured by CTG. […] The same library was screened in 2D-cultures of OVACR4 (FIG. 11A), and 2D-cultures of OVACR8 (FIG. 11C) and 3D-cultures of OVACR8 (FIG. 11D). FIG. 6B is a series of plots showing drug sensitivity testing using the GILA assay in platinum-resistant ex vivo spheroid cultures of patients DF3291 and DF3266, The X-axis indicates the log μM concentration of drugs indicated in the legend, Y-axis indicates the percentage of luminescence signal as indicator for viability relatively to DMSO treated cells. In both patients, half maximal effective concentration (EC50) were ˜100 nM and ˜10 nM, respectively, while other drugs routinely used for the treatment of (platinum-resistant) ovarian cancer had EC50>10 μM. FIG. 6C is a series of images of microscopic analysis of spheroids with different drug treatments to highlight the morphologic changes during therapy with drugs listed. Inhibition of JAK/STAT pathway disrupts ex vivo spheroid cultures. […] The X-axis indicates established ovarian cancer cell line ID. Y-axis indicates the relative number of formed spheroids when treated with either JSI-124 or carboplatin compared to untreated parental controls. Error bars indicate the standard deviation from the mean number of spheroids. […] JAK/STAT inhibition prevents spheroid formation. […] The Y-axis indicates the clearance ability (using arbitrary units). 20 spheroids clusters were analyzed for each iteration. Data is shown as mean (horizontal bar), interquartile range (box), and minimum and maximum (whiskers). Statistical analysis was performed using 1-way analysis of variance (ANOVA) and post hoc Tukey-Kramer **P<0.05. […] FIG. 6G is a histogram showing the inhibition of the JAK/STAT pathway. […]

[3] = system: platinum-resistant ex vivo spheroid cultures of patients DF3266, DF3288, DF3291; experiment: Drug sensitivity testing with the growth in low attachment (GILA) assay; assay type: cell-based; settings: for Sensitivity of spheroid cultures: all spheroid cultures, similar dose range, cisplatin excepted in DF3266 and DF3288
Experimental: FIG. 6A-FIG. 6G are a series of graphs and images depicting the impact of JAK/STAT-inhibition on spheroid formation, invasion and killing ex vivo and in vitro. FIG. 6A a histogram (FIG. 11B), showing drug screening with 14 compounds (at 1 μM) inhibiting the JAK/STAT pathway in OVACR4. Relative viability compared to DMSO control measured by CTG. […] The same library was screened in 2D-cultures of OVACR4 (FIG. 11A), and 2D-cultures of OVACR8 (FIG. 11C) and 3D-cultures of OVACR8 (FIG. 11D). FIG. 6B is a series of plots showing drug sensitivity testing using the GILA assay in platinum-resistant ex vivo spheroid cultures of patients DF3291 and DF3266, The X-axis indicates the log μM concentration of drugs indicated in the legend, Y-axis indicates the percentage of luminescence signal as indicator for viability relatively to DMSO treated cells. In both patients, half maximal effective concentration (EC50) were ˜100 nM and ˜10 nM, respectively, while other drugs routinely used for the treatment of (platinum-resistant) ovarian cancer had EC50>10 μM. FIG. 6C is a series of images of microscopic analysis of spheroids with different drug treatments to highlight the morphologic changes during therapy with drugs listed. Inhibition of JAK/STAT pathway disrupts ex vivo spheroid cultures. […] The X-axis indicates established ovarian cancer cell line ID. Y-axis indicates the relative number of formed spheroids when treated with either JSI-124 or carboplatin compared to untreated parental controls. Error bars indicate the standard deviation from the mean number of spheroids. […] JAK/STAT inhibition prevents spheroid formation. […] The Y-axis indicates the clearance ability (using arbitrary units). 20 spheroids clusters were analyzed for each iteration. Data is shown as mean (horizontal bar), interquartile range (box), and minimum and maximum (whiskers). Statistical analysis was performed using 1-way analysis of variance (ANOVA) and post hoc Tukey-Kramer **P<0.05. […] FIG. 6G is a histogram showing the inhibition of the JAK/STAT pathway.
Single-cell RNA-sequencing was performed on these platinum-resistant patient samples, using the growth in low attachment (GILA) assay (Rotem et al., 2015 Proc. Natl. Acad. Sci. U.S.A, 112:5708-5713; B. Izar and A. Rotem, 2016 Curr. Protoc. Mol. Biol., 116:28.8.1-28.8.12). […] In contrast, all spheroid cultures were resistant to carboplatin, cisplatin, olaparib and paclitaxel at a similar dose range, with the exception of cisplatin with an EC50 of ˜10 μM in patients DF3266 and DF3288.

SMILES | Tumor response (tumor volume, BLI signal) [1] | Effect on spheroids formation [2] | Sensitivity of spheroid cultures [3] | EC50 ([3]; patients DF3266 and DF3288, read-out: EC50)
N.N.O=C([O-])C1(C(=O)[O-])CCC1.[Pt+2] [carboplatin] | brisk response | modest to no effects | resistant | –
N.N.[Cl][Pt][Cl] [cisplatin] | – | – | resistant | ~10 µM
O=C(c1cc(Cc2n[nH]c(=O)c3ccccc23)ccc1F)N1CCN(C(=O)C2CC2)CC1 [olaparib] | – | – | resistant | –
CC(=O)O[C@H]1C(=O)[C@@]2(C)[C@H]([C@H](OC(=O)c3ccccc3)[C@]3(O)C[C@H](OC(=O)[C@H](O)[C@@H](NC(=O)c4ccccc4)c4ccccc4)C(C)=C1C3(C)C)[C@]1(OC(C)=O)CO[C@@H]1C[C@@H]2O [paclitaxel] | – | – | resistant | –
